This is an account of results in patent publication US20040110775A1, “Cyclin dependent kinase inhibiting purine derivatives” (priority 2001, published 2004).

One may read the IC50 as the concentration that inhibits the measured activity by half.

Structures are written as SMILES. Where “and” joins values, the source holds several entries; their conditions need not be identical. Equal entries are not always repeated. Where two headings read alike, the source gives them in different places.

One test deals with p34 cdc2(CDK1)/cyclinB. The experiment in a line: CDK assay: histone H1 phosphorylation with [32P]ATP by cdc2/cyclinB kinase. It counts as biochemical, starfish (Marthasterias glacialis). The following applies: read-out: IC50 ± SD CDK1. The method, then: Assays are available for testing the inhibitory activity of the compounds of interest against a range of CDK/cyclin complexes, including CDK1/cyclin A, CDK1/cyclin B, CDK1/cyclin F, CDK2/cyclin A, CDK2/cyclin E, CDK4/cyclin D, CDK5/35 and CDK6/cyclin D3. […]
(§1) By way of example, however, a typical protocol is summarised below.
Buffer C (containing 6 mM β-glycerophosphate, 30 mM nitrophenyl phosphate, 25 mM MOPS pH 7.0, 5 mM EGTA, 15 mM MgCl2, […] and 0.1 mM sodium orthovanadate) is made up as follows:
Affinity purified p34 cdc2(CDK1)/cyclinB from M-phase starfish (Marthasterias glacialis) in 20% glycerol is stored at −80° C. in chest freezer
Histone H1 (type III-S (Sigma) 4° C.) 5 mg/ml in buffer C.
[^32P]ATP 75 mM: Make up using (multiples of) the following proportions:
DMSO cannot exceed 1% in the assay mixture. Inhibitors are added at 1/10 final assay volume and 10× final strength. DMSO stocks must therefore be diluted to 10× final desired concentration in ≦10% DMSO, ≧90% buffer C.
All reagents (except DMSO stocks) should be kept on ice until assay initiated.
Start reaction in each tube at 30 second intervals b)y adding
5 ml [^32P]ATP vortexing and placing in rack in waterbath at 30° C.
Terminate reaction after 10 min at 30 second intervals in tubes in same order by removing […] reaction mix and spotting onto appropriately labelled filter, allowing to dry for 20-30 seconds and transferring to stirring 1% phosphoric acid.
Blank incubation is performed as above but without histone (add […] buffer C instead) Washing blank is […] ATP added directly to filter.
Wash filters 5-6 times 5 min each
Dry the filters on paper towel
Count in mini scintillation vials with 5 ml scintillant.
NB. The assay can be simplified by making up stock reaction mix as follows:
(1 part cdc2/cyclinB, 16 parts buffer C, 5 parts histone H1)×Number of assay tubes+1 and add […] to each assay tube containing […] buffer C±inhibitor.
It is still necessary, however, to make up assay blank (i.e. without histone) separately.

The target in the next test is CDK2 (Homo sapiens, UniProt P24941). The experiment in a line: Inhibition of CDK2 (CDK inhibition assay). Particulars: read-out: IC50 ± SD CDK2. The class given is biochemical.
Source text: Assays are available for testing the inhibitory activity of the compounds of interest against a range of CDK/cyclin complexes, including CDK1/cyclin A, CDK1/cyclin B, CDK1/cyclin F, CDK2/cyclin A, CDK2/cyclin E, CDK4/cyclin D, CDK5/35 and CDK6/cyclin D3.
Apart from reference compounds, the compounds listed are accompanied by an NU reference or identification code number.
as §1

Consider `c1ccc(Nc2nc(OCC3CCCCC3)c3nc[nH]c3n2)cc1` [NU6094, 2-Anilino-6-cyclohexylmethoxypurine], for which the IC50 at p34 cdc2(CDK1)/cyclinB (values given in μM) is 1.6 ± 0.1 µM.
As for `Brc1cccc(Nc2nc(OCC3CCCCC3)c3nc[nH]c3n2)c1` [NU6095, 2-(3′-Bromoanilino)-6-cyclohexylmethoxypurine], the half-maximal inhibitory concentration (IC50) on p34 cdc2(CDK1)/cyclinB (values given in μM) came out at 5.3 ± 0.8 µM.
Take `COc1cccc(Nc2nc(OCC3CCCCC3)c3nc[nH]c3n2)c1` [NU6096, 6-Cyclohexylmethoxy-2-(3′-methoxyanilino)purine]: the IC50 at p34 cdc2(CDK1)/cyclinB (values given in μM) was determined as 2.2 ± 0.2 µM.
On to `Fc1cccc(Nc2nc(OCC3CCCCC3)c3nc[nH]c3n2)c1` [NU6098, 6-Cyclohexylmethoxy-2-(3′-fluoroanilino)purine], for which the IC50 at CDK2 (values given in μM) and on p34 cdc2(CDK1)/cyclinB (values given in μM) was ~10 µM throughout.
Turning to `CCc1cccc(Nc2nc(OCC3CCCCC3)c3nc[nH]c3n2)c1` [NU6099, 6-Cyclohexylmethoxy-2-(3′-ethylanilino)purine], the IC50 on CDK2 (values given in μM) and on p34 cdc2(CDK1)/cyclinB (values given in μM) was > 10 µM in each case.
For the compound `COc1ccc(Nc2nc(OCC3CCCCC3)c3nc[nH]c3n2)cc1` [NU6100, 6-Cyclohexylmethoxy-2-(4′-methoxyanilino)purine], at p34 cdc2(CDK1)/cyclinB (values given in μM), the 50% inhibitory concentration (IC50) turned out to be 0.8 ± 0.01 µM.
Same read-out and setting: as for `CSc1cccc(Nc2nc(OCC3CCCCC3)c3nc[nH]c3n2)c1` [NU6101, 6-Cyclohexylmethoxy-2-(3′-methylmercaptoanilino)purine], the figure is 2.4 ± 0.2 µM.
For the compound `Fc1ccc(Nc2nc(OCC3CCCCC3)c3nc[nH]c3n2)cc1` [NU6116, 6-Cyclohexylmethoxy-2-(4′-fluoroanilino)purine], the IC50 on CDK2 (values given in μM) and at p34 cdc2(CDK1)/cyclinB (values given in μM) was > 10 µM throughout.
As to `CSc1ccc(Nc2nc(OCC3CCCCC3)c3nc[nH]c3n2)cc1` [NU6117, 6-Cyclohexylmethoxy-2-(4′-methylmercaptoanilino)purine], the IC50 at CDK2 (values given in μM) and on p34 cdc2(CDK1)/cyclinB (values given in μM) was > 10 µM each time.
As for `COC(=O)c1ccc(Nc2nc(OCC3CCCCC3)c3nc[nH]c3n2)cc1` [NU6118, Methyl 4-N-(6′-Cyclohexylmethoxypurin-2′-yl)aminobenzoate], the 50% inhibitory concentration (IC50) at CDK2 (values given in μM) and on p34 cdc2(CDK1)/cyclinB (values given in μM) was ~10 µM in each case.
Take `Fc1ccc(Nc2nc(OCC3CCCCC3)c3nc[nH]c3n2)cc1Cl` [NU6119, 6-Cyclohexylmethoxy-2-(3′-chloro-4′-fluoroanilino)purine]: the half-inhibitory concentration (IC50) on CDK2 (values given in μM) and at p34 cdc2(CDK1)/cyclinB (values given in μM) was ~10 µM throughout.
As to `N#CCc1ccc(Nc2nc(OCC3CCCCC3)c3nc[nH]c3n2)cc1` [NU6121, 6-Cyclohexylmethoxy-2-(4′-cyanomethylanilino)purine], the IC50 came out at 0.3 ± 0.03 µM on CDK2 (values given in μM) and 0.3 ± 0.1 µM on p34 cdc2(CDK1)/cyclinB (values given in μM).
The like results for `O=S(=O)(NCc1ccccc1)c1ccc(Nc2nc(OCC3CCCCC3)c3nc[nH]c3n2)cc1` [NU6123, N-Benzyl-4-(cyclohexylmethoxypurine-2-ylamino)-benzenesulfonamide] were, in that order, 0.2 ± 0.1 µM and 0.7 ± 0.3 µM.
Regarding `NS(=O)(=O)c1ccc(CNc2nc(OCC3CCCCC3)c3nc[nH]c3n2)cc1` [NU6124, 4-[(6-Cyclohexylmethoxypurine-2-ylamino)methyl]benzenesulfonamide], the concentration for half-maximal inhibition (IC50) on CDK2 (values given in μM) is 15 µM and 13 µM; on p34 cdc2(CDK1)/cyclinB (values given in μM), 17 ± 0.3 µM.
Turning to `CC(=O)c1ccc(Nc2nc(OCC3CCCCC3)c3nc[nH]c3n2)cc1` [NU6125], the IC50 at CDK2 (values given in μM) stood at 0.3 ± 0.04 µM; at p34 cdc2(CDK1)/cyclinB (values given in μM), 0.5 ± 0.2 µM.
For `C[S+]([O-])c1ccc(Nc2nc(OCC3CCCCC3)c3nc[nH]c3n2)cc1` (stereo not drawn) [NU6126], the IC50 at p34 cdc2(CDK1)/cyclinB (values given in μM) turned out to be 0.2 ± 0.1 µM.
As to `CNS(=O)(=O)c1ccc(Nc2nc(OCC3CCCCC3)c3nc[nH]c3n2)cc1` [NU6127, 4-(6-Cyclohexylmethoxy-2-ylamino)-N-methylbenzenesulfonamide], on p34 cdc2(CDK1)/cyclinB (values in nM), the IC50 is 0.009 µM and 0.01 µM.
As for `CN(C)S(=O)(=O)c1ccc(Nc2nc(OCC3CCCCC3)c3nc[nH]c3n2)cc1` [NU6128, 4-(6-Cyclohexylmethoxy-2-ylamino)-N,N-dimethylbenzenesulfonamide], the IC50 at p34 cdc2(CDK1)/cyclinB (values in nM) worked out at 0.077 ± 0.005 µM.
Consider `CCNS(=O)(=O)c1ccc(Nc2nc(OCC3CCCCC3)c3nc[nH]c3n2)cc1` [NU6129, 4-(6Cyclohexylmethoxy-2-ylamino)-N-ethylbenzenesulfonamide], for which the IC50 on CDK2 (values in nM) was 0.008 ± 0.002 µM; at p34 cdc2(CDK1)/cyclinB (values in nM) it was 0.007 µM and 0.009 µM.
Regarding `CC(C)CNS(=O)(=O)c1ccc(Nc2nc(OCC3CCCCC3)c3nc[nH]c3n2)cc1` [NU6130, 4-(6Cyclohexylmethoxy-2-ylamino)-N-isobutylbenzenesulfonamide], the half-inhibitory concentration (IC50) came out at 0.069 ± 0.013 µM at CDK2 (values in nM) and 0.071 ± 0.009 µM at p34 cdc2(CDK1)/cyclinB (values in nM).
With `O=S(=O)(NC1CC1)c1ccc(Nc2nc(OCC3CCCCC3)c3nc[nH]c3n2)cc1` [NU6131, 4-(6-Cyclohexylmethoxy-9H-purin-2-ylamino)-N-cyclopropylbenzenesulfonamide], the IC50 was 0.008 ± 0.0003 µM on CDK2 (values in nM) and 0.013 ± 0.005 µM on p34 cdc2(CDK1)/cyclinB (values in nM).
Regarding `O=S(=O)(Nc1cccc(Cl)c1)c1ccc(Nc2nc(OCC3CCCCC3)c3nc[nH]c3n2)cc1` [NU6132, N-(3-Chloro-phenyl)-4-(6-cyclohexylmethoxy-9H-purin-2-ylamino)benzenesulfonamide], the IC50 at CDK2 (values given in μM) was determined as 5.7 µM.
Turning to `CCCNS(=O)(=O)c1ccc(Nc2nc(OCC3CCCCC3)c3nc[nH]c3n2)cc1` [NU6133, 4-(6-Cyclohexylmethoxy-9H-purin-2-ylamino)-N-propylbenzenesulfonamide], the IC50 on CDK2 (values in nM) is 0.017 ± 0.013 µM; on p34 cdc2(CDK1)/cyclinB (values in nM), 0.034 ± 0.004 µM.
As for `O=S(=O)(NCC1CCCO1)c1ccc(Nc2nc(OCC3CCCCC3)c3nc[nH]c3n2)cc1` (stereo not drawn) [NU6134, 4-(6-Cyclohexylmethoxy-9H-purin-2-ylamino)-N-(tetrahydrofuran-2-ylmethyl)benzenesulfonamide], the IC50 on CDK2 (values in nM) is 0.007 ± 0.0032 µM; on p34 cdc2(CDK1)/cyclinB (values in nM) it was 0.0072 µM and 0.0073 µM.
`COCCNS(=O)(=O)c1ccc(Nc2nc(OCC3CCCCC3)c3nc[nH]c3n2)cc1` [NU6135, 4-(6-Cyclohexylmethoxy-9H-purin-2-ylamino)-N-(2-methoxyethyl)benzenesulfonamide]: the IC50 is 0.006 ± 0.0015 µM on CDK2 (values in nM) and 0.018 ± 0.004 µM at p34 cdc2(CDK1)/cyclinB (values in nM).
With `CN(C)C(=O)c1ccc(Nc2nc(OCC3CCCCC3)c3nc[nH]c3n2)cc1` [NU6136, 4-(6-Cyclohexylmethoxy-9H-purin-2-ylamino)-N,N-dimethylbenzamide], the IC50 on CDK2 (values given in μM) is 0.2 µM; on p34 cdc2(CDK1)/cyclinB (values given in μM), 0.6 µM.
In the case of `CNC(=O)c1ccc(Nc2nc(OCC3CCCCC3)c3nc[nH]c3n2)cc1` [NU6139, 4-(6-Cyclohexylmethoxy-9H-purin-2-ylamino)-N-methylbenzamide], the 50% inhibitory concentration (IC50) at CDK2 (values given in μM) came out at 0.3 µM; at p34 cdc2(CDK1)/cyclinB (values given in μM), 0.7 µM.
For the compound `CCN(CC)C(=O)c1ccc(Nc2nc(OCC3CCCCC3)c3nc[nH]c3n2)cc1` [NU6140, 4-(6-Cyclohexylmethoxy-9H-purin-2-ylamino)-N,N-diethylbenzamide], on p34 cdc2(CDK1)/cyclinB (values given in μM), the IC50 stood at 0.7 µM.
As to `CCCNC(=O)c1ccc(Nc2nc(OCC3CCCCC3)c3nc[nH]c3n2)cc1` [NU6142, 4-(6-Cyclohexylmethoxy-9H-purin-2-ylamino)-N-propylbenzamide], the IC50 was ~0.1 µM at CDK2 (values in nM) and 0.42 µM on p34 cdc2(CDK1)/cyclinB (values given in μM).
Consider `CCNC(=O)c1ccc(Nc2nc(OCC3CCCCC3)c3nc[nH]c3n2)cc1` [NU6143, 4-(6-Cyclohexylmethoxy-9H-purin-2-ylamino)-N-ethylbenzamide], for which the 50% inhibitory concentration (IC50) on CDK2 (values in nM) and at p34 cdc2(CDK1)/cyclinB (values in nM) was > 0.1 µM in each case.
Take `O=S(=O)(NCCO)c1ccc(Nc2nc(OCC3CCCCC3)c3nc[nH]c3n2)cc1` [NU6144, 4-(6-Cyclohexylmethoxy-9H-purin-2-ylamino)-N-(2-hydroxyethyl)benzenesulfonamide]: the results for the IC50 on CDK2 (values in nM) and at p34 cdc2(CDK1)/cyclinB (values in nM) were 0.004 ± 0.0015 µM and 0.008 ± 0.0002 µM, respectively.
For `O=S(=O)(Nc1nccs1)c1ccc(Nc2nc(OCC3CCCCC3)c3nc[nH]c3n2)cc1` [NU6145, 4-(6-Cyclohexylmethoxy-9H-purin-2-ylamino)-N-thiazol-2-ylbenzenesulfonamide], the IC50 on CDK2 (values in nM) stood at 0.024 µM; at p34 cdc2(CDK1)/cyclinB (values in nM), 0.037 µM.
As for `O=C(O)c1ccc(Nc2nc(OCC3CCCCC3)c3nc[nH]c3n2)cc1` [NU6147, 4-(6-Cyclohexylmethoxypurin-2-ylamino)benzoic acid], the IC50 at p34 cdc2(CDK1)/cyclinB (values given in μM) is 0.24 µM.
On to `OCc1cccc(Nc2nc(OCC3CCCCC3)c3nc[nH]c3n2)c1` [NU6151, [3-(6-Cyclohexylmethoxy-9H-purin-2-ylamino)phenyl]methanol], for which, on p34 cdc2(CDK1)/cyclinB (values given in μM), the IC50 was 0.3 ± 0.01 µM.
With `COc1cc(Nc2nc(OCC3CCCCC3)c3nc[nH]c3n2)ccc1S(N)(=O)=O` [NU6161, 4-[6-Cyclohexylmethoxy-9H-purin-2-ylamino]-benzene(3′-methoxy)sulfonamide], the IC50 at p34 cdc2(CDK1)/cyclinB (values in nM) came out at 0.103 ± 0.004 µM.
